Test results reported in US9441012B2, “Fluorinated epoxyketone-based compounds and uses thereof as proteasome inhibitors” (FLUORINOV PHARMA INC., priority 2012, dated 2016).

Columns and labels:
Test in all cases: NCI 60 human tumor cell line screen (SRB)
Assay type in all cases: cell-based
OVCAR-5 = OVCAR-5 (Ovarian Cancer); 48 h
Text: (§1) Representative compounds of Formula I were screened using the National Cancer Institute (NCI) screening panel, which consists of a panel of 60 different human tumor cell lines, representing leukemia [CCRF-CEM, HL-60 (TB), K-562, MOLT-4, SR], melanoma [LOX IMVI, MALME-3M, M14, SMDA-MB-435, SK-MEL-2, SK-MEL-28, SK-MEL-5, UACC-257 and UACC-62] and cancers of the lung [A549/ATCC, EKVX, HOP-62, HOP-93, NCI-H226, NCI-H23, NCI-H322M, NCI-H460], colon [COLO 205, HCT-116, HCT-15, HT29, KM12, SW-620], brain [SF-268, SF-295, SF-539, SNB-19, SNB-75, U251], ovary [IGROV1, OVCAR-3, OVCAR-4, OVCAR-5, OVCAR-8, NCI/ADR-RES, SK-OV-3], breast [MCF7, MDA-MB-231, BT-549, T-47D, MDA-MB-468], prostate [PC-3, DU-145], and renal[786-0, A498, ACHN, CAKI-1, RXF-393, SN12C, TK-10, UO-31] cancers.
(§2) After 24 h, two plates of each cell line are fixed in situ with TCA, to represent a measurement of the cell population for each cell line at the time of drug addition (Tz). Experimental drugs are solubilised in dimethyl sulfoxide at 400-fold the desired final maximum test concentration and stored frozen prior to use. At the time of drug addition, an aliquot of frozen concentrate is thawed and diluted to twice the desired final maximum test concentration with complete medium containing 50 μg/ml gentamicin. Additional four, 10-fold or ½ log serial dilutions are made to provide a total of five drug concentrations plus control. Aliquots of 100 μl of these different drug dilutions are added to the appropriate microtiter wells already containing 100 μl of medium, resulting in the required final drug concentrations.
(§3) Following drug addition, the plates are incubated for an additional 48 h at 37° C., 5% CO2, 95% air, and 100% relative humidity. For adherent cells, the assay is terminated by the addition of cold TCA (trichloroacetic acid). Cells are fixed in situ by the gentle addition of 50 μl of cold 50% (w/v) TCA (final concentration, 10% TCA) and incubated for 60 minutes at 4° C. The supernatant is discarded, and the plates are washed five times with tap water and air dried. Sulforhodamine B (SRB) solution (100 μl) at 0.4% (w/v) in 1% acetic acid is added to each well, and plates are incubated for 10 minutes at room temperature. After staining, unbound dye is removed by washing five times with 1% acetic acid and the plates are air dried. Bound stain is subsequently solubilised with 10 mM trizma base, and the absorbance is read on an automated plate reader at a wavelength of 515 nm. For suspension cells, the methodology is the same except that the assay is terminated by fixing settled cells at the bottom of the wells by gently adding 50 μl of 80% TCA (final concentration, 16% TCA). Using the seven absorbance measurements [time zero, (Tz), control growth, (C), and test growth in the presence of drug at the five concentration levels (Ti)], the percentage growth is calculated at each of the drug concentration levels. Percentage growth inhibition is calculated as: [(Ti−Tz)/(C−Tz)]×100 for concentrations in which Ti>/=Tz and [(Ti−Tz)/Tz]×100 for concentrations in which Ti<Tz.
(§4) Three dose response parameters are calculated for each experimental agent. Growth inhibition of 50% (GI50) is calculated from [(Ti−Tz)/(C−Tz)]100=50, which is the drug concentration resulting in a 50% reduction in the net protein increase (as measured by SRB staining) in control cells during the drug incubation. The drug concentration resulting in total growth inhibition (TGI) is calculated from Ti=Tz. The LC50 (concentration of drug resulting in a 50% reduction in the measured protein at the end of the drug treatment as compared to that at the beginning) indicating a net loss of cells following treatment is calculated from [(Ti−Tz)/Tz]×100=−50. Values are calculated for each of these three parameters if the level of activity is reached. However, if the effect is not reached or is exceeded, the value for that parameter is expressed as greater or less than the maximum or minimum concentration tested.

HCC-2998 = HCC-2998 (Colon Cancer); 48 h
Text: as §1, §2, §3, §4

HL-60(TB) = HL-60(TB) (Leukemia); 48 h
Text: as §1, §2, §3, §4

SNB-19 = SNB-19 (CNS Cancer); 48 h
Text: as §1, §2, §3, §4

U251 = U251 (CNS Cancer); 48 h
Text: as §1, §2, §3, §4

A498 = A498 (Renal Cancer); 48 h
Text: as §1, §2, §3, §4

SK-OV-3 = SK-OV-3 (Ovarian Cancer); 48 h
Text: as §1, §2, §3, §4

SW-620 = SW-620 (Colon Cancer); 48 h
Text: as §1, §2, §3, §4

NCI/ADR-RES = NCI/ADR-RES (Ovarian Cancer); 48 h
Text: as §1, §2, §3, §4

ACHN = ACHN (Renal Cancer); 48 h
Text: as §1, §2, §3, §4

786-0 = 786-0 (Renal Cancer); 48 h
Text: as §1, §2, §3, §4

HS 578T = HS 578T (Breast Cancer); 48 h
Text: as §1, §2, §3, §4

Row | Compound | Log10GI50 (OVCAR-5) | Log10LC50 (OVCAR-5) | Log10TGI50 (OVCAR-5) | Log10GI50 (HCC-2998) | Log10LC50 (HCC-2998) | Log10TGI50 (HCC-2998) | Log10GI50 (SNB-19) | Log10LC50 (SNB-19) | Log10TGI50 (SNB-19) | Log10GI50 (U251) | Log10LC50 (U251) | Log10TGI50 (U251) | Log10GI50 (A498) | Log10LC50 (A498) | Log10TGI50 (A498) | Log10GI50 (SK-OV-3) | Log10TGI50 (SK-OV-3) | Log10GI50 (SW-620) | Log10LC50 (SW-620) | Log10TGI50 (SW-620) | further results
1 | Cc1ncc(C(=O)N[C@@H](COC(F)F)C(=O)N[C@@H](COC(F)F)C(=O)N[C@@H](Cc2ccccc2)C(=O)[C@@]2(C)CO2)s1 [Example 1, 2-methyl-thiazole-5-carboxylic acid ((S)-1-{(S)-1-[(S)-1-benzyl-2-((R)-2-methyloxiranyl)-2-oxo-ethylcarbamoyl]-2-difluoromethoxyethylcarbamoyl}-2-difluoromethoxyethyl)-amide] | −6.18 | −4.17 | −5.30 | −6.74 | −6.15 | −6.45 | −6.49 | >−4.00 | >−4.00 | −6.55 | >−4.00 | −4.94 | −8.00 | −4.88 | −6.38 | −6.06 | >−4.00 | −7.39 | −4.40 | −5.95 | Log10GI50 (HL-60(TB)): −6.56; Log10LC50 (HL-60(TB)): >−4.00; Log10TGI50 (HL-60(TB)): >−4.00; Log10LC50 (SK-OV-3): >−4.00; Log10GI50 (NCI/ADR-RES): −5.11; Log10LC50 (NCI/ADR-RES): >−4.00; Log10TGI50 (NCI/ADR-RES): −4.23; Log10GI50 (ACHN): −6.53; Log10LC50 (ACHN): >−4.00; Log10TGI50 (ACHN): −4.81; Log10GI50 (786-0): −6.43; Log10LC50 (786-0): >−4.00; Log10TGI50 (786-0): −4.62; Log10GI50 (HS 578T): −7.33; Log10LC50 (HS 578T): >−4.00; Log10TGI50 (HS 578T): −5.44
2 | CC(C)C[C@H](NC(=O)[C@H](Cc1ccccc1)NC(=O)[C@H](COC(F)F)NC(=O)CN1CCOCC1)C(=O)[C@@]1(C)CO1 [Example 25, (2S)-2-[[(2S)-3-(difluoromethoxy)-2-[(2-morpholinoacetyl)amino]propanoyl]amino]-N-[(1S)-3-methyl-1-[(2R)-2-methyloxirane-2-carbonyl]butyl]-3-phenyl-propanamide] | −7.36 | >−4.00 | −6.44 | −7.74 | −7.20 | −7.47 | −7.23 | >−4.00 | >−4.00 | −7.44 | >−4.00 | −6.75 | −7.61 | −6.34 | −7.03 | −7.30 | −6.60 | −7.41 | >−4.00 | −5.93 | Log10GI50 (HL-60(TB)): −7.45; Log10LC50 (HL-60(TB)): >−4.00; Log10TGI50 (HL-60(TB)): −6.35; Log10GI50 (NCI/ADR-RES): −5.82; Log10LC50 (NCI/ADR-RES): >−4.00; Log10TGI50 (NCI/ADR-RES): >−4.00; Log10GI50 (ACHN): −7.01; Log10LC50 (ACHN): >−4.00; Log10TGI50 (ACHN): >−4.00; Log10GI50 (786-0): −7.20; Log10LC50 (786-0): −5.44; Log10TGI50 (786-0): −6.49; Log10GI50 (HS 578T): −7.54; Log10LC50 (HS 578T): >−4.00; Log10TGI50 (HS 578T): −6.24
3 | C[C@]1(C(=O)[C@H](Cc2ccccc2)NC(=O)[C@H](Cc2ccccc2)NC(=O)[C@H](COC(F)F)NC(=O)CN2CCOCC2)CO1 [Example 29] | −6.65 | >−4.00 | −5.58 | −6.80 | −6.21 | −6.50 | −6.51 | >−4.00 | >−4.00 | −6.98 | >−4.00 | −5.70 | −6.68 | −5.47 | −6.11 | −6.46 | −5.78 | −7.40 | >−4.00 | −4.92 | Log10LC50 (SK-OV-3): >−4.00; Log10GI50 (NCI/ADR-RES): −5.58; Log10LC50 (NCI/ADR-RES): >−4.00; Log10TGI50 (NCI/ADR-RES): >−4.00; Log10GI50 (ACHN): −6.59; Log10LC50 (ACHN): >−4.00; Log10TGI50 (ACHN): >−4.00; Log10GI50 (786-0): −6.55; Log10LC50 (786-0): −4.87; Log10TGI50 (786-0): −5.96; Log10GI50 (HS 578T): −7.07; Log10LC50 (HS 578T): >−4.00; Log10TGI50 (HS 578T): >−4.00
